The structures appear in SMILES notation.

The target of one experiment is T1, Cholesteryl ester transfer protein (Homo sapiens, UniProt P11597).
T1 sequence (P11597 whole entry): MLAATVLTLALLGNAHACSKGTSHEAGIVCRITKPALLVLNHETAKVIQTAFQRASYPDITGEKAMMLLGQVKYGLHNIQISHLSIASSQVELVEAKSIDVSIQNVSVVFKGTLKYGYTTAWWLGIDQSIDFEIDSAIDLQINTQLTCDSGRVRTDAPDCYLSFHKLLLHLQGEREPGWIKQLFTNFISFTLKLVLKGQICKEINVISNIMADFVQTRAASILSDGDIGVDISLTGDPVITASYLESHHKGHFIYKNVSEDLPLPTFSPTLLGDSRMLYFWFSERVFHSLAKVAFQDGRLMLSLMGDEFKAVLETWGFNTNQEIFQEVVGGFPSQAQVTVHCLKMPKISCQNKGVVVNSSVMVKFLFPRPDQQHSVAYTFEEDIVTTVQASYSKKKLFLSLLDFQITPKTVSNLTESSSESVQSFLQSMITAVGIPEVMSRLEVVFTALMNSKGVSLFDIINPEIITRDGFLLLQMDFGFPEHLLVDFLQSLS
As to the kind of experiment: Inhibition of CETP.
Take `CC(C)COc1ccccc1-c1ccc(N2CCC(CNC(=O)c3ccc(-c4nc5cc(C#N)cc(C(C)C)c5o4)cc3)CC2)nc1`: the IC50 – broadly, the concentration that gives 50% inhibition – is 31 nM. In other words, the double-digit nanomolar range. Same read-out and setting: the result for `Cc1cc(C#N)cc2nc(-c3ccc(CC(O)CN4CCN(c5ccc(C(F)(F)F)cc5)CC4)cc3)oc12` (stereo not given) reads 874 nM; that for `COC(Cc1ccc(-c2nc3cc(C#N)cc(C)c3o2)cc1)CN1CCN(c2ccc(C(F)(F)F)cc2)CC1` (stereo not given), 8940 nM; that for `Cc1cc(C#N)cc2nc(-c3ccc(NCC(O)CN4CCN(c5ccc(C(F)(F)F)cc5)CC4)cc3)oc12` (stereo not given), 18800 nM. The same measure, in the same setting: the result for `Cc1cc(C#N)cc2nc(-c3ccc(N4CCC(N5CCN(c6ccc(C(F)(F)F)cc6)CC5)C4=O)cc3)oc12` (stereo not given) reads 2740 nM; that for `Cc1cc(C#N)cc2nc(-c3ccc(C(=O)NCCC4CCN(c5ccc(C(F)(F)F)cc5)CC4)cc3)oc12`, 11600 nM. The same measure, in the same setting: for `Cc1cc(C#N)cc2nc(-c3ccc(C(=O)NCC4CCN(c5ccc(C(F)(F)F)cc5)CC4)cc3)oc12` the value was 300 nM; for `Cc1cc(C#N)cc2nc(-c3ccc(NC(=O)CN4CCN(c5ccc(C(F)(F)F)cn5)CC4)cc3)oc12`, 15 nM. For `CC(C)Oc1ccc(F)cc1-c1ccc(N2CCC(CNC(=O)c3ccc(-c4nc5cc(C#N)cc(C(C)C)c5o4)cc3)CC2)nc1`, inhibition was half-maximal at 13 nM (IC50).

`Cc1cc(C#N)cc2nc(-c3ccc(CCCN4CCN(c5ccc(C(F)(F)F)cc5)CC4)cc3)oc12` gave a half-inhibitory concentration (IC50) of 975 nM. Consider `Cc1cc(C#N)cc2nc(-c3ccc(C#CCN4CCN(c5ccc(C(F)(F)F)cc5)CC4)cc3)oc12`, for which the IC50 is 2170 nM. Compared with the last compound, the IC50 is about 2.2-fold higher. On the same count and under the same terms, the result for `Cc1cc(C#N)cc2nc(-c3ccc(C(=O)CCN4CCN(c5ccc(C(F)(F)F)cc5)CC4)cc3)oc12` reads 2050 nM; that for `Cc1cc(C#N)cc2nc(-c3ccc(CC(=O)CN4CCN(c5ccc(C(F)(F)F)cc5)CC4)cc3)oc12`, 5740 nM. For `Cc1cc(C#N)cc2nc(-c3ccc(C(=O)N4CCN(c5ccc(C(F)(F)F)cc5)CC4)cc3)oc12`, half-maximal inhibition (IC50) required 4030 nM. Regarding `Cc1cc(C#N)cc2nc(-c3ccc(OCCN4CCN(c5ccc(C(F)(F)F)cc5)CC4)cc3)oc12`, inhibition was half-maximal at 4550 nM (IC50). The same measure, in the same setting: for `Cc1cc(C#N)cc2nc(-c3ccc(C(O)CCN4CCN(c5ccc(C(F)(F)F)cc5)CC4)cc3)oc12` (stereo not given) the value was 2250 nM; for `Cc1cc(C#N)cc2nc(-c3ccc(C(=O)N(C)CC4CCN(c5ccc(C(F)(F)F)cc5)CC4)cc3)oc12`, 2610 nM; for `N#Cc1cc(C2CC2)c2oc(-c3ccc(C(=O)NCC4CCN(c5ccc(C(F)(F)F)cn5)CC4)cc3)nc2c1`, 243 nM.

The compound `N#Cc1cc(C(F)(F)F)c2oc(-c3ccc(C(=O)NCC4CCN(c5ccc(C(F)(F)F)cn5)CC4)cc3)nc2c1` came in with an IC50 of 3190 nM. Against the preceding compound, the IC50 is about 13-fold higher. Still for that read-out and setting: the result for `CC(C)(C)c1cc(C#N)cc2nc(-c3ccc(C(=O)NCC4CCN(c5ccc(C(F)(F)F)cn5)CC4)cc3)oc12` reads 198 nM. On the same count and under the same terms, the result for `C=C(C)c1cc(C#N)cc2nc(-c3ccc(C(=O)NCC4CCN(c5ccc(C(F)(F)F)cn5)CC4)cc3)oc12` reads 131 nM; that for `CC(C)c1cc(C#N)cc2nc(-c3ccc(C(=O)NCC4CCN(c5ccc(C(F)(F)F)cn5)CC4)cc3)oc12`, 40 nM. Turning to `CC(C)c1cc(C#N)cc2nc(-c3ccc(C(=O)NCC4CCN(c5nccc(C(F)(F)F)n5)CC4)cc3)oc12`, the 50% inhibitory concentration (IC50) came to 22 nM. Against the preceding compound, the IC50 is about 1.8-fold lower. The compound `CC(C)c1cc(C#N)cc2nc(-c3ccc(C(=O)NCC4CCN(c5ccccn5)CC4)cc3)oc12` gave an IC50 of 114 nM.

The compound `CC(C)c1cc(C#N)cc2nc(-c3ccc(C(=O)NCC4CCN(c5cccc(C(F)(F)F)n5)CC4)cc3)oc12` returned an IC50 of 37 nM. On the same count and under the same terms, for `COc1cccc(N2CCC(CNC(=O)c3ccc(-c4nc5cc(C#N)cc(C(C)C)c5o4)cc3)CC2)n1` the value was 110 nM; for `CC(C)c1cc(C#N)cc2nc(-c3ccc(C(=O)NCC4CCN(c5cc(C(F)(F)F)ccn5)CC4)cc3)oc12`, 61 nM; for `COC(=O)c1ccc(N2CCC(CNC(=O)c3ccc(-c4nc5cc(C#N)cc(C(C)C)c5o4)cc3)CC2)nc1`, 114 nM.

Compound `COC(=O)c1cccc(N2CCC(CNC(=O)c3ccc(-c4nc5cc(C#N)cc(C(C)C)c5o4)cc3)CC2)n1` returned an IC50 of 306 nM. As for `CC(C)c1cc(C#N)cc2nc(-c3ccc(C(=O)NCC4CCN(c5cccc(C(=O)O)n5)CC4)cc3)oc12`, the IC50 was above 10000 nM. The same measure, in the same setting: for `CC(C)c1cc(C#N)cc2nc(-c3ccc(C(=O)NCC4CCN(c5ccc([N+](=O)[O-])cn5)CC4)cc3)oc12` the value was above 10000 nM. On the same count and under the same terms, the result for `CC(C)c1cc(C#N)cc2nc(-c3ccc(C(=O)NCC4CCN(c5ccc(Br)cn5)CC4)cc3)oc12` reads 223 nM. On the same count and under the same terms, for `C=C(C)c1ccc(N2CCC(CNC(=O)c3ccc(-c4nc5cc(C#N)cc(C(C)C)c5o4)cc3)CC2)nc1` the value was 229 nM. In turn, `CC(C)c1cc(C#N)cc2nc(-c3ccc(C(=O)NCC4CCN(c5ccc(-c6ccccc6)cn5)CC4)cc3)oc12` displayed an IC50 of 43 nM. Same read-out and setting: for `Cc1ccc(-c2ccc(N3CCC(CNC(=O)c4ccc(-c5nc6cc(C#N)cc(C(C)C)c6o5)cc4)CC3)nc2)cc1` the value was 48 nM; for `Cc1cccc(-c2ccc(N3CCC(CNC(=O)c4ccc(-c5nc6cc(C#N)cc(C(C)C)c6o5)cc4)CC3)nc2)c1`, 39 nM. On the same count and under the same terms, the result for `COc1cccc(Cl)c1-c1ccc(N2CCC(CNC(=O)c3ccc(-c4nc5cc(C#N)cc(C(C)C)c5o4)cc3)CC2)nc1` reads 47 nM; that for `COc1cc(F)c(C(C)C)cc1-c1ccc(N2CCC(CNC(=O)c3ccc(-c4nc5cc(C#N)cc(C(C)C)c5o4)cc3)CC2)nc1`, 24 nM; that for `Cc1ccc(OC(C)C)c(-c2ccc(N3CCC(CNC(=O)c4ccc(-c5nc6cc(C#N)cc(C(C)C)c6o5)cc4)CC3)nc2)c1`, 22 nM. Still for that read-out and setting: for `CC(C)Oc1ccc(C(F)(F)F)cc1-c1ccc(N2CCC(CNC(=O)c3ccc(-c4nc5cc(C#N)cc(C(C)C)c5o4)cc3)CC2)nc1` the value was 28 nM; for `CC(C)c1cc(C#N)cc2nc(-c3ccc(C(=O)NCC4CCN(c5ccc(-c6cc(C(F)(F)F)ccc6OCc6ccccc6)cn5)CC4)cc3)oc12`, 413 nM; for `CC(C)Oc1ccccc1-c1ccc(N2CCC(CNC(=O)c3ccc(-c4nc5cc(C#N)cc(C(C)C)c5o4)cc3)CC2)nc1`, 29 nM. In turn, `CC(C)c1ccccc1-c1ccc(N2CCC(CNC(=O)c3ccc(-c4nc5cc(C#N)cc(C(C)C)c5o4)cc3)CC2)nc1` had a 50% inhibitory concentration (IC50) of 19 nM.

A further experiment relates to Mus musculus. As to the kind of experiment: Antiatherogenic activity in transgenic mouse PD model assessed as rise in HDL-cholesterol level at 10 mg/kg. Format: functional.
As to `Cc1cc(C#N)cc2nc(-c3ccc(NC(=O)CN4CCN(c5ccc(C(F)(F)F)cc5)CC4)cc3)oc12`, the Activity came to 24 mg/dL. Still for that read-out and setting: the result for `Cc1cc(C#N)cc2nc(-c3ccc(NC(=O)CN4CCN(c5ccc(C(F)(F)F)cn5)CC4)cc3)oc12` reads 21 mg/dL; that for `CC(C)Oc1ccc(F)cc1-c1ccc(N2CCC(CNC(=O)c3ccc(-c4nc5cc(C#N)cc(C(C)C)c5o4)cc3)CC2)nc1`, 24 mg/dL; that for `CC(C)c1cc(C#N)cc2nc(-c3ccc(C(=O)NCC4CCN(c5ccc(C(F)(F)F)cn5)CC4)cc3)oc12`, 16 mg/dL. With `CC(C)c1cc(C#N)cc2nc(-c3ccc(C(=O)NCC4CCN(c5nccc(C(F)(F)F)n5)CC4)cc3)oc12`, the Activity was 7 mg/dL. In the case of `CC(C)c1cc(C#N)cc2nc(-c3ccc(C(=O)NCC4CCN(c5ccc(-c6ccccc6)cn5)CC4)cc3)oc12`, the Activity stood at 22 mg/dL. As for `Cc1ccc(OC(C)C)c(-c2ccc(N3CCC(CNC(=O)c4ccc(-c5nc6cc(C#N)cc(C(C)C)c6o5)cc4)CC3)nc2)c1`, the Activity stood at 28 mg/dL.

Values taken from ChEMBL document CHEMBL1681632, “2-(4-carbonylphenyl)benzoxazole inhibitors of CETP: scaffold design and advancement in HDLc-raising efficacy” (Bioorg Med Chem Lett, 2011).
